From US4232121A, “Process for selecting methine dyes which inhibit cell growth” (Eastman Kodak Company, priority 1978, dated 1980)
Like-named read-outs stand apart in the source and are kept apart here.

What was measured:
[1] = test system: Bacillus cereus; test: Inhibition of bacterial growth, filter paper technique; type: cell-based
Experimental: (§1) Schleider and Schuell #740-E filter paper (12.7 mm diameter) was dipped in the dye solution, touched to the side of the beaker to removed excess dye, and placed in the center of the inoculated agar plates (prepared in (B) above). The plates were then incubated at 26° C. for […]. The plates were then examined to determine if bacterial growth had been affected by the dye-containing filter paper. With certain dyes bacterial growth was inhibited in a circular area around the filter paper. With other dyes no such area of inhibition was observed.
(§2) Cultures of various gram-negative and gram-positive bacteria were prepared in nutrient and Tryptic Soy Agar and plates were poured as described in Example 1. Methanolic solutions of cyanine dyes were prepared at 10^-3 molar and applied to the plates using the filter paper technique described in Example 1. Control plates were prepared in which the filter paper contained methanol or a 0.2 molar aqueous solution of phenol. The plates were then incubated at 26° C. or 37° C. for forty-eight hours.

[2] = test system: Micrococus luteus; test: as above; type: cell-based; conditions: for zone of inhibition at 1000 µM: read-out: Area of Inhibition (diameter)
Experimental: as §1, §2

[3] = test system: Bacillus megaterium; test: as above; type: cell-based; conditions: Table VIII, Tryptic Soy, 37° C./48 hrs; for zone of inhibition at 1000 µM: Priestia megaterium, read-out: Area of Inhibition (diameter)
Experimental: as §1, §2

[4] = test system: Micrococcus flavus; test: as above; type: cell-based
Experimental: as §1, §2

[5] = test system: Escherichia coli, Strain B; test: as above; type: cell-based; conditions: Table VIII, 37° C./48 hrs; for Area of Inhibition (diameter): 10^-3 molar, Gram -
Experimental: as §1, §2

[6] = test system: Bacillus subtilis; test: as above; type: cell-based; conditions: for zone of inhibition at 1000 µM: Table VIII, 10^-3 molar, Gram +, 26° C./48 hrs, read-out: Area of Inhibition (diameter)
Experimental: as §1, §2

[7] = test system: Alcaligenes faecalis; test: as above; type: cell-based; conditions: for Area of Inhibition (diameter): Table VIII, 10^-3 molar, Gram -, 37° C./48 hrs
Experimental: as §1, §2

[8] = test system: Proteus vulgaris; test: as above; type: cell-based; conditions: Table VIII, 37° C./48 hrs; for Area of Inhibition (diameter): 10^-3 molar, Gram -
Experimental: as §1, §2

[9] = test system: Enterobacter aerogenes; test: as above; type: cell-based; conditions: Table VIII, 37° C./48 hrs; for Area of Inhibition (diameter): 10^-3 molar, Gram -
Experimental: as §1, §2

[10] = not told
Experimental: If a published reduction potential is not available, suitable techniques for measuring reduction potential are available and can be used. […] This technique involves measurement at 20° C., of an approximately 10^-4 molar solution of the dye in an electrolyte, such as methanol which is 0.05 molar in lithium chloride, using a dropping mercury electrode. The potential values are reported by reference to a silver-silver chloride electrode in a saturated solution of potassium chloride at 20° C.

[11] = test system: Bacillus pumilus strain K-1; test: Inhibition of bacterial growth, filter paper on inoculated agar plates; type: cell-based
Experimental: Nutrient broth was prepared by mixing 8 grams of BACTO dehydrated nutrient broth per liter of distilled water. […] Samples of the nutrient broth were then inoculated with Bacillus pumilus strain K-1 culture. […]
Nutrient agar was prepared by mixing 23 grams of BACTO nutrient agar per liter of distilled water. The nutrient agar was sterilized in the same way as the nutrient broth. After it has cooled to about 45° C. 250 ml of the nutrient agar solution was aeseptically inoculated with 5 ml of the Bacillus pumilus, K-1 culture prepared in (A), above. Plates of the inoculated nutrient agar were then poured and allowed to harden.
[…] To minimize possible photocatalyzed reactions of the dyes, all preparations were performed under yellow lights and all incubations were performed in the dark.
Schleider and Schuell #740-E filter paper (12.7 mm diameter) was dipped in the dye solution, touched to the side of the beaker to removed excess dye, and placed in the center of the inoculated agar plates (prepared in (B) above). […] The plates were then examined to determine if bacterial growth had been affected by the dye-containing filter paper. […]
Control plates were prepared in which the filter paper contained methanol or a 0.2 molar aqueous solution of phenol. […]

[12] = test system: Bacillus pumilus (K-1)
Experimental: This can be accomplished by contacting a given concentration of the dye with the cells, removing the cells from the dye solution and then comparing the optical density (at λmax) of the remaining dye solution with a control containing the original concentration of the dye. The percentage decrease in optical density indicates the percentage of dye which has been bound to the cells.
The culture was collected by centrifugation at 5,000×g. for 10 minutes, and the resultant pellet was washed several times in cold 0.05 M potassium phosphate buffer, pH 7.0. The pellet was resuspended in the buffer solution to a final optical density of 1.0 at 620 nm as measured with a Bausch and Lomb Spectronic 20.
One-tenth ml of dye solution (1 mg/ml in methanol) was added to a tube containing 5 ml of cell suspension described above and a control tube containing 0.05 M potassium phosphate buffer, pH 7.0. All tubes were well agitated using a Vari-Whirl Mixer (Will Scientific Co.) and then centrifuged at 10,000×g. for 10 minutes.
The percent binding of dye to the cells for each dye, was determined by comparison of the density at λmax of the control supernatant sample with the density at λmax of the supernatant of the cell sample.

[13] = Oxidation potential (Eox) of the dye; type: physicochemical; conditions: Tables I, II, V, VI
[14] = test system: Sea Urchin Eggs; test: Inhibition of cell division in fertilized sea urchin eggs; type: cell-based; conditions: arbitrary scale 0 to 5, 5 most active; dye 10^-5 to 10^-6 molar, 60 minutes after fertilization
Experimental: To suspensions in filtered sea water of fertilized sea urchin eggs there was added, three minutes after fertilization, methanolic solutions of the dyes in an amount sufficient to yield a final concentration of dye of between 10^-5 and 10^-6 molar. The final concentration of methanol was, at a maximum 1×10^-4 molar. The eggs were visually observed at 60 minutes after fertilization to determine if cell division and the formation of mitotic apparatus had been inhibited. A rating was assigned based on the concentration of dye required to inhibit cell division and synthesis of DNA.

[15] = Table VIII, 10^-3 molar, Gram +, 26° C./48 hrs
[16] = Bacillus pumilus, K1, 48 h, Table VIII, 10^-3 molar, Nutrient, 37° C./48 hrs, read-out: Area of Inhibition (diameter)
[17] = Bacillus pumilus, K1, Table IX, 10^-3 M, read-out: Diameter of Inhibition
[18] = Table II, 10^-4 molar, 26° C., forty-eight hours
[19] = 48 h, read-out: Area of Inhibition (diameter), control
[20] = Bacillus pumilus, K1, read-out: Diameter of Inhibition

Structure (SMILES) | Area of Inhibition (diameter) [1, 15] | zone of inhibition at 1000 µM [2, 15] [mm] | zone of inhibition at 1000 µM ([3]; 10^-3 molar, Gram +) [mm] | Area of Inhibition (diameter) [4, 15] | Area of Inhibition (diameter) [5] | zone of inhibition at 1000 µM [6] [mm] | Area of Inhibition (diameter) [7] | Area of Inhibition (diameter) [8] | Area of Inhibition (diameter) [9] | ER [10] | reduction potential (ER) [10] [volts] | Activity Rating [11] | zone of inhibition at 1000 µM [11, 16] [mm] | zone of inhibition at 1000 µM [11, 17] [mm] | % Bound [12] [%] | Eox [13] | Diameter of Inhibition [11, 18] | Diameter of Inhibition ([11]; Table IX, 10^-4 M) | Sea Urchin Eggs Activity [14] | also measured
CCN1C(=Cc2oc3ccccc3[n+]2CC)Oc2ccccc21 [Dye 1] | No | 22 | 17 | No | No | 13 | No | No | No | -1.69 | -1.69 | 39 | 18 | 18 | 33.6 |  |  |  |  | 
CCN1C(=CC=CC=Cc2oc3ccccc3[n+]2CC)Oc2ccccc21 [Dye 21] |  | 14 | 18 |  | No | 16 | No | No | No | -.83 | -0.83 | 66 | 21 | 21 | 99.4 |  |  |  |  | zone of inhibition at 1000 µM ([1]; Bacillus cereus, Table VIII, 10^-3 molar, Gram +, 26° C./48 hrs, read-out: Area of Inhibition (diameter)): 14 mm; zone of inhibition at 1000 µM ([4]; Micrococcus flavus, Table VIII, 10^-3 molar, Gram +, 26° C./48 hrs, read-out: Area of Inhibition (diameter)): 18 mm
CC[n+]1c(C=Cc2c(-c3cccnc3)n(C)c3ccccc23)sc2cc([N+](=O)[O-])ccc21 [Dye 32] |  |  |  |  |  |  |  |  |  |  | -0.32 | 0 |  |  | 61.0 | > +1.00 | None | None | +2 | 
Cn1c(-c2ccccc2)c(C=CC=C2C(c3ccccc3)=[N+](C)c3ccccc32)c2ccccc21 [Dye 33] | No |  |  | No | No | 13 | No | No | No |  | -0.20 | 0 |  |  | 83.7 | > +1.00 | None | None | 0 | Area of Inhibition (diameter) [2, 15]: Slight; Area of Inhibition (diameter) ([3]; 10^-3 molar, Gram +): No; Diameter of Inhibition ([11]; Table I, 10^-4 molar, 26° C., fifty hours, dark): None; Diameter of Inhibition ([11]; Table IX, 10^-3 M): None; Area of Inhibition (diameter) ([11]; Table VIII, 10^-3 molar, Nutrient, 37° C./48 hrs): No
Oc1ccccc1 [Phenol, reference compound] |  |  |  |  |  |  |  |  |  |  |  |  |  |  |  |  |  |  |  | zone of inhibition at 200000 µM ([1]; Bacillus cereus, 48 h, read-out: Area of Inhibition (diameter), control): 14 mm; zone of inhibition at 200000 µM [2, 19]: 15 mm; Area of Inhibition (diameter), control ([3]; 0.2 M phenol): Slight; zone of inhibition at 200000 µM ([4]; Micrococcus flavus, 48 h, read-out: Area of Inhibition (diameter), control): 16 mm; Area of Inhibition (diameter), control ([5]; 0.2 M phenol): No; zone of inhibition at 200000 µM [6, 19]: 13 mm; zone of inhibition at 200000 µM ([7]; Alcaligenes faecalis, 48 h, read-out: Area of Inhibition (diameter), control): 15 mm; Area of Inhibition (diameter), control ([8]; 0.2 M phenol): No; Area of Inhibition (diameter), control ([9]; 0.2 M phenol): No; zone of inhibition at 200000 µM ([11]; Bacillus pumilus, K1, 48 h, read-out: Area of Inhibition (diameter), control): 22 mm; zone of inhibition at 53000 µM [11, 20]: 18 mm; zone of inhibition at 106000 µM [11, 20]: 22 mm; zone of inhibition at 213000 µM [11, 20]: 26 mm
